Entries after “also recorded” stand apart in the source; their conditions may differ.
Columns and labels:
iPS cardiomyocytes = experiment: Cytotoxicity, CellTiter Glo; assay type: cell-based; settings: Homo sapiens, Cardiomyocyte, 72 h, 3 days of treatment, read-out: IC50 (50% reduction in cell viability)
Method: The evaluation of the off-target effects of NV651 was performed by ImQuest BioSciences Inc. (Frederick, MD, USA) by analyzing the cytotoxicity in a panel of primary cells. NV651 was evaluated at a concentration of 30 µM and five serial half-logarithmic dilutions in triplicate. The positive control compounds for each cell type were purchased from Sigma-Aldrich (St. Louis, MO, USA) and were as follows: Unstimulated human peripheral blood mononuclear cells (PBMCs), phytohemagglutinin (PHA)-stimulated PBMCs, monocytes/macrophages, dendritic cells, hepatocytes, induced pluripotent stem cell (iPS) neurons: […] AZT, kidney cells (RPTEC): cisplatin and iPS cardiomyocytes: Doxazosin. iPS cardiomyocytes (Cellular Dynamics, Madison, WI, USA) were seeded in a 96-well plate precoated with 0.1% gelatin (Sigma-Aldrich, St. Louis, MO, USA) in a plating medium (Cellular dynamics, Madison, WI, USA) at a concentration of 1.5 × 10^4 cells/well. After 48 h of incubation, cells were washed, and NV651 diluted in the maintenance medium (Cellular Dynamics, Madison, WI, USA) was added. After 3 days of incubation, cell viability was measured with CellTiter Glo (Promega, Madison, WI, USA). CellTiter Glo was performed to evaluate cell viability. CellTiter Glo Luminescent Cell Viability Assay (Promega, Madison, WI, USA) was performed according to the manufacturer’s instructions.

[1] = In vivo toxicity, body weight; settings: BALB/c nude mice; 25, 50 or 200 mg/kg daily IP for 5 days
Method: All the procedures related to animal handling, care and the treatment in this study were performed according to the guidelines approved by the Institutional Animal Care and Use Committee (IACUC) of Shanghai ChemPartner Ltd. (Shanghai, China) following the guidance of the Association for Assessment and Accreditation of Laboratory Animal Care (AAALAC). BALB/c nude mice were kept in individual ventilation cages at a constant temperature and humidity, with 5 animals in each cage. Animals had free access to irradiation-sterilized dry granule food during the entire study period and water. BALB/c nude mice between 6–8 weeks were treated with either 25, 50 or 200 mg/kg dissolved in 25% buffered beta OH cyclodextrin (n = 5 mice per treatment). Daily doses were given intraperitoneally (IP) for 5 days. Mice were weighted daily until the 6th day.

[2] = parameters: method as in PMID 31717385; settings: cited from earlier work

## CC(=O)CCC1C(=O)NC(C(C)C)C(=O)NC(Cc2cc(O)cc(F)c2)C(=O)N2CCCC(N2)C(=O)OC(C(C)=CC=CC(=O)OC(C)(C)C)CC=CC=CC(O)C(C)C1O (stereo not drawn) [NV651]
iPS cardiomyocytes
  IC50: > 30 µM
[1]
  body weight change: no significant weight loss or other clinical signs; also recorded: no body weight losses
[2]
  immunosuppressant activity: no immunosuppressant activity
